Drawing on PubChem BioAssay AID1259407 (Chemical Carcinogenesis Research Information System (CCRIS), 2018), this text covers mutagenic call for ten compounds.

Each structure is given as a SMILES string. Active and inactive are the calls of the source. The rule behind the calls is not given here.

The test system of this data set is CCRIS mutagenicity, Ames/micronucleus/aberration tests. Put plainly: CCRIS mutagenicity studies.
[1] abbreviates: Test System: AMES SALMONELLA TYPHIMURIUM, Strain/Indicator: TA98, Metabolic Activation: NONE, Method: STANDARD PLATE.
[2] abbreviates: Test System: AMES SALMONELLA TYPHIMURIUM, Strain/Indicator: TA98, Metabolic Activation: RAT LIVER S-9, AROCLOR 1254, Method: STANDARD PLATE.
Where [3] appears, read: Test System: AMES SALMONELLA TYPHIMURIUM, Strain/Indicator: TA100, Metabolic Activation: NONE, Method: STANDARD PLATE.
The mark [4] stands for this setting: Test System: AMES SALMONELLA TYPHIMURIUM, Strain/Indicator: TA100, Metabolic Activation: RAT LIVER S-9, AROCLOR 1254, Method: STANDARD PLATE.
Where [5] appears, read: Test System: AMES SALMONELLA TYPHIMURIUM, Strain/Indicator: TA100, Metabolic Activation: NONE, Method: PREINCUBATION
Where [6] appears, read: Test System: AMES SALMONELLA TYPHIMURIUM, Strain/Indicator: TA100, Metabolic Activation: RAT, LIVER, S-9, AROCLOR 1254, Method: PREINCUBATION

On to `O=[N+]([O-])c1cccc(O)c1`, for which the mutagenic call runs as follows: (Test System: AMES SALMONELLA TYPHIMURIUM, Strain/Indicator: TA97, Metabolic Activation: HAMSTER, LIVER, S-9, AROCLOR 1254 (10%), Method: PREINCUBATION) “inactive; negative”; (Test System: AMES SALMONELLA TYPHIMURIUM, Strain/Indicator: TA97, Metabolic Activation: NONE, Method: PREINCUBATION) “inactive; negative”; (Test System: AMES SALMONELLA TYPHIMURIUM, Strain/Indicator: TA97, Metabolic Activation: RAT, LIVER, S-9, AROCLOR 1254 (10%), Method: PREINCUBATION) “inactive; negative”; (Test System: AMES SALMONELLA TYPHIMURIUM, Strain/Indicator: TA98, Metabolic Activation: HAMSTER, LIVER, S-9, AROCLOR 1254 (10%), Method: PREINCUBATION) “inactive; negative”; (Test System: AMES SALMONELLA TYPHIMURIUM, Strain/Indicator: TA98, Metabolic Activation: RAT, LIVER, S-9, AROCLOR 1254 (10%), Method: PREINCUBATION) “inactive; negative”; (Test System: AMES SALMONELLA TYPHIMURIUM, Strain/Indicator: TA98, Metabolic Activation: RAT, LIVER, S-9, KANECHLOR 500, Method: PREINCUBATION) “active; positive”. Also, the mutagenic call was “inactive; negative” (Test System: AMES SALMONELLA TYPHIMURIUM, Strain/Indicator: TA98, Method: PREINCUBATION); “inactive; negative” (Test System: AMES SALMONELLA TYPHIMURIUM, Strain/Indicator: TA100, Metabolic Activation: HAMSTER, LIVER, S-9, AROCLOR 1254 (10%), Method: PREINCUBATION); “inactive; negative” (Test System: AMES SALMONELLA TYPHIMURIUM, Strain/Indicator: TA100, Metabolic Activation: RAT, LIVER, S-9, AROCLOR 1254 (5, 10 OR 30%), Method: PREINCUBATION); “active; positive” (Test System: AMES SALMONELLA TYPHIMURIUM, Strain/Indicator: TA100, Metabolic Activation: RAT, LIVER, S-9, KANECHLOR 500, Method: PREINCUBATION); “inactive; negative” (Test System: AMES SALMONELLA TYPHIMURIUM, Strain/Indicator: TA100, Method: PREINCUBATION); “inactive; negative” (Test System: AMES SALMONELLA TYPHIMURIUM, Strain/Indicator: TA1535, Metabolic Activation: HAMSTER, LIVER, S-9, AROCLOR 1254 (10%), Method: PREINCUBATION). Besides, the mutagenic call was “inactive; negative” (Test System: AMES SALMONELLA TYPHIMURIUM, Strain/Indicator: TA1535, Metabolic Activation: NONE, Method: PREINCUBATION); “inactive; negative” (Test System: AMES SALMONELLA TYPHIMURIUM, Strain/Indicator: TA1535, Metabolic Activation: RAT, LIVER, S-9, AROCLOR 1254 (10%), Method: PREINCUBATION); “inactive; negative” (Test System: AMES SALMONELLA TYPHIMURIUM, Strain/Indicator: TA1535, Method: PREINCUBATION); “inactive; negative” (Test System: AMES SALMONELLA TYPHIMURIUM, Strain/Indicator: TA1537, Metabolic Activation: NONE, Method: PREINCUBATION); “inactive; negative” (Test System: AMES SALMONELLA TYPHIMURIUM, Strain/Indicator: TA1537, Method: PREINCUBATION); “inactive; negative” (Test System: AMES SALMONELLA TYPHIMURIUM, Strain/Indicator: TA1538, Metabolic Activation: NONE, Method: PREINCUBATION). For the same compound, under “Test System: AMES SALMONELLA TYPHIMURIUM, Strain/Indicator: TA1538, Method: PREINCUBATION”, the mutagenic call is “inactive; negative”.
With `CCC(C)CO` (stereo unspecified), the mutagenic call by setting is: (Test System: CHINESE HAMSTER V-79, Strain/Indicator: V-79 (HPRT)/6-THIOGUANINE, Metabolic Activation: NONE, Method: STANDARD PLATE) “inactive; negative”; (Test System: CHINESE HAMSTER V-79, Strain/Indicator: V-79 (HPRT)/6-THIOGUANINE, Metabolic Activation: RAT LIVER S-9, Method: STANDARD PLATE) “inactive; negative”.
Turning to `Nc1ccc2sncc2c1`, the mutagenic call (Test System: AMES SALMONELLA TYPHIMURIUM, Strain/Indicator: TA100, Metabolic Activation: S-9, Method: STANDARD PLATE) is “active; positive”.
`CCc1ccc(C)cc1`: the mutagenic call by setting is: (Test System: AMES SALMONELLA TYPHIMURIUM, Strain/Indicator: TA97A, Metabolic Activation: NONE, Method: STANDARD PLATE) “inactive; negative”; (Test System: AMES SALMONELLA TYPHIMURIUM, Strain/Indicator: TA97A, Metabolic Activation: RAT LIVER S-9, AROCLOR 1254, Method: STANDARD PLATE) “inactive; negative”; under setting [1], “inactive; negative”; under setting [2], “inactive; negative”; under setting [3], “inactive; negative”; under setting [4], “inactive; negative”. The mutagenic call is “inactive; negative” (Test System: AMES SALMONELLA TYPHIMURIUM, Strain/Indicator: TA102, Metabolic Activation: NONE, Method: STANDARD PLATE) and “inactive; negative” (Test System: AMES SALMONELLA TYPHIMURIUM, Strain/Indicator: TA102, Metabolic Activation: RAT LIVER S-9, AROCLOR 1254, Method: STANDARD PLATE).
As to `C/C=C\C(=O)O[C@@H]1C[C@H]2O[C@@H]3C=C(C)C(=O)C[C@]3(C)[C@]1(C)[C@]21CO1`, the mutagenic call is “inactive; negative” (Test System: AMES SALMONELLA TYPHIMURIUM, Strain/Indicator: TA98, Metabolic Activation: NONE, Method: PREINCUBATION); “inactive; negative” (Test System: AMES SALMONELLA TYPHIMURIUM, Strain/Indicator: TA98, Metabolic Activation: RAT, LIVER, S-9, AROCLOR 1254, Method: PREINCUBATION); “inactive; negative” under setting [5]; “inactive; negative” under setting [6].
Take `CCN(CC)c1ccc(-c2ccc(-c3ccc(-c4ccc(N(CC)CC)cc4)cc3)cc2)cc1`: the mutagenic call is “inactive; negative” (Test System: AMES SALMONELLA TYPHIMURIUM, Strain/Indicator: TA1538, Metabolic Activation: NONE, Method: STANDARD PLATE) and “inactive; negative” (Test System: AMES SALMONELLA TYPHIMURIUM, Strain/Indicator: TA1538, Metabolic Activation: RAT, LIVER, S-9, AROCLOR 1254, Method: STANDARD PLATE).
As for `Cc1c([N+](=O)[O-])cc(C)c2c1c1ccccc1n2C`, the mutagenic call under setting [1] was “active; positive”, the mutagenic call under setting [2] was “active; positive”, the mutagenic call under setting [3] is “active; positive” and the mutagenic call under setting [4] was “active; positive”.
As for `C1CSCN1`, under setting [5], the mutagenic call is “active; positive”.
With `Fc1cccc2cccnc12`, the mutagenic call reads like this: (End Point: In vitro chromosomal aberrations, Test System: Chinese hamster lung fibroblast cells (CHL/IU), Metabolic Activation: Rat, Liver, S-9) “active; positive, described as marginally clastogenic at nontoxic doses. (information de”; (End Point: In vitro micronucleus, Test System: Chinese hamster lung fibroblast cells (CHL/IU), Metabolic Activation: Rat, Liver, S-9) “inactive; negative, cytotoxic at 0.2 mg/ml. (information derived from a figure)”; (Test System: AMES SALMONELLA TYPHIMURIUM, Strain/Indicator: TA100, Metabolic Activation: RAT LIVER S-9, PHENOBARBITAL AND 5,6-BENZOFLAVONE, Method: PREINCUBATION) “active; positive”; under setting [6], “active; positive”; (Test System: AMES SALMONELLA TYPHIMURIUM, Strain/Indicator: TA100, Metabolic Activation: RAT, LIVER, S-9, PHENOBARBITAL AND 5,6-BENZOFLAVONE, Method: PREINCUBATION) “active; positive”; (Test System: AMES SALMONELLA TYPHIMURIUM, Strain/Indicator: TA100, Metabolic Activation: RAT, LIVER, S-9, PHENOBARBITAL AND 5,6-NAPHTHOFLAVONE, Method: PREINCUBATION) “active; positive”. Besides, the mutagenic call is, setting by setting: (Test System: AMES SALMONELLA TYPHIMURIUM, Strain/Indicator: TA100, Metabolic Activation: S-9, Method: PREINCUBATION) “active; positive”; (Test System: UDS RODENT HEPATOCYTES, Strain/Indicator: THY INCORP (NON-S-PHASE), Metabolic Activation: NONE, Method: AUTORADIOGRAPHY) “active; positive”.
As to `COC(=O)c1cc2c([nH]c3ccc([N+](=O)[O-])cc32)c(-c2ccccc2)n1`, the mutagenic call (Test System: AMES SALMONELLA TYPHIMURIUM, Strain/Indicator: TA98(NR), Metabolic Activation: NONE, Method: STANDARD PLATE) is “inactive; negative” and the mutagenic call (Test System: AMES SALMONELLA TYPHIMURIUM, Strain/Indicator: TA98(NR), Metabolic Activation: RAT, LIVER, S-9, AROCLOR 1254, Method: STANDARD PLATE) is “active; positive”.
